Measured values from US11925637B2, “Phenylpiperazine proprotein convertase subtilisin/kexin type 9 (PCSK9) modulators and their use” (SRX Cardio, LLC, priority 2015, dated 2024).

Key:
recombinant PCSK9 [1] = target: T1, recombinant PCSK9 (Homo sapiens, UniProt Q8NBP7); assay: DiI-LDL Uptake Assay (% inhibition of recombinant PCSK9); type: cell-based; conditions: 2.5 ug/mL recombinant PCSK9, HepG2 cells (FIG. 1), read-out: Uptake Assay: % Inhibition of 2.5 ug/mL recombinant PCSK9 @ X compound dose; for inhibition at 10 µM: compound dose 10 uM; for inhibition at 20 µM: compound dose 20 uM; for inhibition at 5 µM: compound dose 5 uM; for inhibition at 1.25 µM: compound dose 1.25 uM; for inhibition at 2.5 µM: compound dose 2.5 uM
Description: The cells were incubated in a 96-well plate for a total of 16 h in the absence or presence of recombinant PCSK9 (final concentration 2.5 ug/ml) protein alone or recombinant PCSK9 protein pre-mixed with indicated concentration of experimental compounds (Cmpd #). After 16 h, DiI-LDL (final concentration 5 ug/ml) was added to the incubation mixtures. After 4 h, cells are stained with Hoechst 33342 for 30 minutes, then rinsed with phosphate buffered saline, and then a final volume of 100 ul phosphate buffered saline was added to each well. The fluorescence was measured (DiI: excitation at 550 nm and emission at 590 nm; Hoechst: excitation at 355 nm, emission at 460 nm). The percent recombinant PCSK9 inhibition was calculated as [‘Compound Dose DiI Fluorescence’−‘2.5 ug/ml PCSK9-treated DiI Fluorescence’]/[‘No PCSK9 DiI Fluorescence’−‘2.5 ug/ml PCSK9-treated DiI Fluorescence’]×100%.
Cellular DiI-LDL uptake can be measured using protocols adapted from Benjannet et al., “Effects of the prosegment and pH on the activity of PCSK9: evidence for additional processing events” J Biol Chem. 285(52): 40965-40978 (2010) and “Composition and Methods of Use of Small Molecules as Binding Ligands for the Modulation of Proprotein Convertase Subtilisin/Kexin Type 9 (PCSK9) Protein Activity” (WO2016029037), which are incorporated by reference in their entirety.
Cells, such as HepG2, HuH7, FL83B, or a cell line transfected with a short-hairpin PCSK9 knockdown sequence such as HepG2/shPCSK9, HuH7/shPCSK9, or FL83B/shPCSK9 are plated and cultured at 37° C. for 12-24 h. Culture media is removed and replaced with fresh lipoprotein-depleted culture media supplemented with 5 ug/mL of DiI-LDL (Kalen Biomedical) or lipoprotein-depleted culture media supplemented with 5 ug/mL of DiI-LDL plus a predetermined concentration of recombinant PCSK9, for example a 10 nM final concentration of PCSK9. Lipoprotein-depleted culture media can be composed of DMEM (Invitrogen) with 10% lipoprotein-depleted fetal bovine serum (Kalen Biomedical) and supplemented with penicillin-streptomycin (Life Technologies). Cells are dosed with small molecule test compounds at doses ranging from 0 nM to 100 uM.
Following an incubation period of specified length, such as 6 hours, Hoechst 33342 (AnaSpec) stain is added to the cell media per manufacturer's instructions and incubated for a specified length (e.g., 30 minutes). The lipoprotein-depleted media is removed and cells rinsed three times with phosphate buffered saline. A final volume of phosphate buffered saline is added back to the wells. The DiI fluorescence is measured with a plate reader using an exciting wavelength of 550 nm and the resulting emission at 590 nm is measured. The Hoechst stain fluorescence is measured with a plate reader using an exciting wavelength of 355 nm and the resulting emission at 460 nm is measured.
Cells are analyzed by for both Hoechst stain (DNA content) and DiI-LDL fluorescence. Cells incubated with small molecule compounds that are inhibitors of PCSK9 will be expected to show increased amounts of DiI-LDL fluorescence, relative to control (no compound) specimens, and cells incubated with small molecule compounds that are activators of PCSK9 will be expected to show decreased amounts of DiI-LDL fluorescence relative to control (no compound) specimens.

recombinant PCSK9 [2] = target: T1, recombinant PCSK9; assay: LDLR Flow (FACS) Assay (% inhibition of recombinant PCSK9); type: cell-based; conditions: 5.0 ug/mL recombinant PCSK9, HuH7 cells (FIG. 2), read-out: LDLR Flow Assay: % Inhibition of 5.0 ug/mL recombinant PCSK9 @ X compound dose; for inhibition at 1.25 µM: Huh-7, compound dose 1.25 uM; for inhibition at 10 µM: Huh-7, compound dose 10 uM; for inhibition at 0.313 µM: Huh-7, compound dose 0.313 uM; for inhibition at 20 µM: Huh-7, compound dose 20 uM
Description: The cells were incubated in 24-well plates for a total of 6 h in the absence or presence of recombinant PCSK9 protein (final concentration of 5.0 ug/ml), or in the presence of PCSK9 protein mixed with indicated concentration of experimental compound (Cmpd #). After 6 hours, the cells were released from the plate, stained with anti-LDLR antibody, then rinsed, counterstained with DAPI, and then measured by fluorescence activated cell sorting (FACS). The percent recombinant PCSK9 inhibition was calculated as [‘Compound Dose LDLR Fluorescence’−‘5.0 ug/ml PCSK9-treated LDLR Fluorescence’]/[‘No PCSK9 Basal LDLR Fluorescence’−‘5.0 ug/ml PCSK9-treated LDLR Fluorescence’]×100%.
LDLR levels can be measured using flow cytometry or fluorescence activated cell sorting (FACS) using protocols adapted from Benjannet et al., “Effects of the prosegment and pH on the activity of PCSK9: evidence for additional processing events” J Biol Chem. 285(52): 40965-40978 (2010) and “Composition and Methods of Use of Small Molecules as Binding Ligands for the Modulation of Proprotein Convertase Subtilisin/Kexin Type 9 (PCSK9) Protein Activity” (WO2016029037), which are incorporated by reference in their entirety.
Cells, such as HepG2, HuH7, FL83B, or a cell line transfected with a short-hairpin PCSK9 knockdown sequence such as HepG2/shPCSK9, HuH7/shPCSK9, or FL83B/shPCSK9 are plated and cultured at 37° C. for 12-24 h. Culture media is removed and replaced with fresh culture media or culture media plus a predetermined amount of recombinant PCSK9, for example a 10 nM final concentration of PCSK9. Cell culture media can be composed of DMEM (Invitrogen) with 10% fetal bovine serum (Life Technologies) supplemented with penicillin-streptomycin (Life Technologies). Cells are dosed with small molecule test compounds at doses ranging from 0 nM to 100 uM
Following an incubation period of specified length, such as 6 hours, the media is removed and the cells are rinsed three times with a rinse solution (i.e., Dulbecco's phosphate buffered saline (D-PBS, Life Technologies) supplemented with 0.5% bovine serum albumin (BSA, Sigma) and 1 g/L glucose (Sigma)). The fluid is then removed, and cells are released from the plate using TrypLE Express (Life Technologies) per manufacturer's recommend procedures, such as incubation for 5-10 minutes at 37° C. The TyrpLE-Cell suspension is then transferred to 15 mL conical tubes, volume is increased to 2 mL with D-PBS supplemented with 0.5% BSA and […] glucose, and the tubes are centrifuged at 250× gravity for 10 minutes. Following centrifugation, the supernatant is aspirated and the cell pellet is resuspended in 100 uL D-PBS containing 0.5% BSA and […] glucose, and cells are labeled with anti-LDLR antibody per the manufacturer's recommended procedure. The cells are then pelleted by centrifugation, resuspended in 300 uL PBS and counterstained with 4′,6-Diamidino-2-phenylindole (DAPI, Cayman Chemical) as a cell viability marker, other cell viability markers such as 7-aminoactinomycin D (7AAD, Life Technologies) have also been described in the art.
Cells are analyzed for both cell viability marker (dead cells) and LDLR in live cells using a flow cytometer per the manufacturer's operating manual. Cells incubated with small molecule compounds that are inhibitors of PCSK9 will be expected to show increased amounts of LDLR, relative to control (no compound) specimens, and cells incubated with small molecule compounds that are activators of PCSK9 will be expected to show decreased amounts of LDLR relative to control (no compound) specimens.

T1 sequence (Q8NBP7 153-692): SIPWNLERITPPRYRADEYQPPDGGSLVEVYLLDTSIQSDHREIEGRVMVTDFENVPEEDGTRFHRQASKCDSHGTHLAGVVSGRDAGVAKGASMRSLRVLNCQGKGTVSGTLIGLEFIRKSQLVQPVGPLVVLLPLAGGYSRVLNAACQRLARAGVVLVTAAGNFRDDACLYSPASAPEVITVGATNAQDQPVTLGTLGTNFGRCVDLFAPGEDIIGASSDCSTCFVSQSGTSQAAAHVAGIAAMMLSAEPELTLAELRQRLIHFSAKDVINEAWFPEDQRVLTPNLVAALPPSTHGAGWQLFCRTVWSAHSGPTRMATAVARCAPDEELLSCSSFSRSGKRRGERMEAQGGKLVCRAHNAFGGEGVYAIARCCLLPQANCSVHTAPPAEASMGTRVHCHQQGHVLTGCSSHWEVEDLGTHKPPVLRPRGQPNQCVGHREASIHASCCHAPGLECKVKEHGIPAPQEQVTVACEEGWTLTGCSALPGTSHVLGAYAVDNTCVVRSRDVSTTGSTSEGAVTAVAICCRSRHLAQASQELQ

## c1ccc(COc2ccc(N3CCNCC3)cc2)cc1 [Compound 1, 1-(4-(benzyloxy)phenyl)piperazine]
Recombinant PCSK9 [1]
  inhibition at 10 µM: > 100%
Recombinant PCSK9 [2]
  inhibition at 1.25 µM: ~16%
  inhibition at 10 µM: ~34%

## O=S(=O)(c1ccccc1)c1ccc(N2CCNCC2)c(F)c1 [Compound 2, 1-(2-fluoro-4-(phenylsulfonyl)phenyl)piperazine]
Recombinant PCSK9 [1]
  inhibition at 20 µM: > 100%
Recombinant PCSK9 [2]
  inhibition at 1.25 µM: ~45%
Recombinant PCSK9 [2]; Huh-7, compound dose 5 uM
  inhibition at 5 µM: ~66%

## c1ccc(Oc2ccc(N3CCNCC3)cc2)cc1 [Compound 3]
Recombinant PCSK9 [1]
  inhibition at 10 µM: > 100%
Recombinant PCSK9 [2]
  inhibition at 1.25 µM: ~20%
  inhibition at 10 µM: ~30%

## Oc1cc(Oc2ccc(N3CCNCC3)cc2)ncn1 [Compound 4, 6-(4-(piperazin-1-yl)phenoxy)pyrimidin-4-ol]
Recombinant PCSK9 [2]
  inhibition at 0.313 µM: ~19%
  inhibition at 1.25 µM: ~30%

## O=S(=O)(c1ccc(N2CCNCC2)cc1)N1CCCC1 [Compound 5, 1-(4-(pyrrolidin-1-ylsulfonyl)phenyl)piperazine]
Recombinant PCSK9 [2]
  inhibition at 1.25 µM: ~10%
  inhibition at 10 µM: ~20%

## Fc1ccc(Cc2ccc(N3CCNCC3)cc2)cc1 [Compound 6, 1-(4-(4-fluorobenzyl)phenyl)piperazine]
Recombinant PCSK9 [1]
  inhibition at 5 µM: > 100%
Recombinant PCSK9 [2]
  inhibition at 1.25 µM: ~15%
  inhibition at 10 µM: ~40%

## O=C1CNCCN1c1ccc(Oc2ccccc2)cc1 [Compound 7, 1-(4-phenoxyphenyl)piperazin-2-one]
Recombinant PCSK9 [2]
  inhibition at 1.25 µM: ~18%

## c1cc(C2CCNCC2)ccc1OC1CCCCC1 [Compound 8, 4-(4-(cyclohexyloxy)phenyl)piperidine]
Recombinant PCSK9 [1]
  inhibition at 5 µM: > 100%
Recombinant PCSK9 [2]
  inhibition at 0.313 µM: ~15%
  inhibition at 1.25 µM: ~25%
  inhibition at 10 µM: ~35%

## c1cc(C2CCNCC2)ccc1OC1CCOCC1 [Compound 9, 4-(4-((tetrahydro-2H-pyran-4-yl)oxy)phenyl)piperidine]
Recombinant PCSK9 [2]
  inhibition at 20 µM: ~23%

## O=S(=O)(Nc1ccccc1)c1ccc(N2CCNCC2)cc1 [Compound 10, N-phenyl-4-(piperazin-1-yl)benzenesulfonamide]
Recombinant PCSK9 [1]
  inhibition at 20 µM: > 100%
Recombinant PCSK9 [2]
  inhibition at 1.25 µM: > 10%
  inhibition at 10 µM: > 25%
  inhibition at 20 µM: > 40%

## O=C(Nc1ccccc1)c1ccc(N2CCNCC2)cc1 [Compound 11, N-phenyl-4-(piperazin-1-yl)benzamide]
Recombinant PCSK9 [1]
  inhibition at 20 µM: ~49%

## O=S(=O)(Nc1ccc2c(c1)CCCC2)c1ccc(N2CCNCC2)cc1 [Compound 12, 4-(piperazin-1-yl)-N-(5,6,7,8-tetrahydronaphthalen-2-yl)benzenesulfonamide]
Recombinant PCSK9 [1]
  inhibition at 1.25 µM: ~66%
  inhibition at 2.5 µM: > 100%
Recombinant PCSK9 [2]
  inhibition at 1.25 µM: ~10%
  inhibition at 10 µM: ~25%
  inhibition at 20 µM: ~45%

## c1cc(N2CCNCC2)ccc1OC1CCCCC1 [Compound 13, 1-(4-(cyclohexyloxy)phenyl)piperazine]
Recombinant PCSK9 [1]
  inhibition at 20 µM: > 100%
Recombinant PCSK9 [2]; Huh-7, compound dose 0.625 uM
  inhibition at 0.625 µM: ~20%
Recombinant PCSK9 [2]
  inhibition at 10 µM: ~40%

## O=S(=O)(Nc1ccccc1)c1ccc(C2CCNCC2)cc1 [Compound 14, N-phenyl-4-(piperidin-4-yl)benzenesulfonamide]
Recombinant PCSK9 [1]
  inhibition at 20 µM: > 100%

## O=S(=O)(Nc1ccc2c(c1)CCCC2)c1ccc(C2CCNCC2)cc1 [Compound 15, 4-(piperidin-4-yl)-N-(5,6,7,8-tetrahydronaphthalen-2-yl)benzenesulfonamide]
Recombinant PCSK9 [1]
  inhibition at 1.25 µM: > 50%
  inhibition at 2.5 µM: > 100%
